Measurements as given in patent US12209102B2, “Heterocyclic compounds and uses thereof” (Kumquat Biosciences Inc., priority 2022, dated 2025).

Key:
[1] = molecular target: T1, K-Ras WT (Homo sapiens, UniProt P01116); assay: HTRF resonance energy transfer assay, K-Ras WT / SOS1 interaction; format: biochemical; settings: HTRF assay of Example 5; read-out: IC50 against K-Ras WT
T1 construct: made in house; host or cells: E. coli BL21 (DE3)
Outline: (§1)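 GST-tagged K-Ras (WT or mutant) bound to anti-GST-Eu donor was mixed with His-hSOS1 bound to anti-6His-XL665 acceptor in ~5 mM HEPES pH 7.4, 150 mM NaCl, 1 mM DTT, 0.05% BSA, 0.0025% Igepal. HTRF (ex 337, em 620/665 nm) was read after ~10 min or longer. IC50 came from the 665/620 ratio over duplicates from 10 μM to 0.01 μM.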

[2] = system: A549 cells; assay: Ras cellular assay, growth of cells with K-Ras G12S mutation (CellTiter-Glo); format: cell-based; settings: Homo sapiens, cell growth, Example 9, G12S mutation, read-out: IC50 against A549 cells
Outline: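 A549 cells (K-Ras G12S) in RPMI-1640 with 10% heat-inactivated FBS, seeded e.g. 800 per well in standard or ultra-low-attachment 384-well plates, treated next day with a dilution series (e.g. 10-point, 3-fold). Viability by CellTiter-Glo luminescence about 6 days later; IC50 from four-parameter fit.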

[3] = molecular target: T2, K-Ras G12D (Homo sapiens, UniProt P01116, G12D); assay: HTRF resonance energy transfer assay, K-Ras G12D / SOS1 interaction; format: biochemical; settings: HTRF assay of Example 5; read-out: IC50 against K-Ras G12D
T2 construct: made in house; host or cells: E. coli BL21 (DE3)
T2 sequence (P01116 1-188 isoform P01116-2 G12D): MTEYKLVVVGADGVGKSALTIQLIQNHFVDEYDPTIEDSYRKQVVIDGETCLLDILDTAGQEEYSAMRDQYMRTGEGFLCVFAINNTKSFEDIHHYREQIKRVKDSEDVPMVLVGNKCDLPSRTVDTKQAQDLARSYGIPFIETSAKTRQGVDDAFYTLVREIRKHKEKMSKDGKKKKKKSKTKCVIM
Outline: as §1

[4] = molecular target: T3, K-Ras G12V (Homo sapiens, UniProt P01116, G12V); assay: HTRF resonance energy transfer assay, K-Ras G12V / SOS1 interaction; format: biochemical; settings: HTRF assay of Example 5; read-out: IC50 against K-Ras G12V
T3 construct: made in house; host or cells: E. coli BL21 (DE3)
T3 sequence (P01116 1-188 isoform P01116-2 G12V): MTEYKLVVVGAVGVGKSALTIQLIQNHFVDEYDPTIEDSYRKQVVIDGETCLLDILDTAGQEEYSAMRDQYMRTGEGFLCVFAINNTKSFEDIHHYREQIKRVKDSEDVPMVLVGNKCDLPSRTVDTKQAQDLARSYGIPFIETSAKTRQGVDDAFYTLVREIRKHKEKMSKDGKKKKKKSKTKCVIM
Outline: as §1

[5] = system: GP2D cells; assay: Ras cellular assay, growth of cells with K-Ras G12D mutation (CellTiter-Glo); format: cell-based; settings: cell growth, Example 9, G12D mutation, read-out: IC50 against GP2D cells
[6] = molecular target: T4, K-Ras G12S (Homo sapiens, UniProt P01116, G12S); assay: HTRF resonance energy transfer assay, K-Ras G12S / SOS1 interaction; format: biochemical; settings: HTRF assay of Example 5; read-out: IC50 against K-Ras G12S
T4 construct: made in house; host or cells: E. coli BL21 (DE3)
T4 sequence (P01116 1-188 isoform P01116-2 G12S): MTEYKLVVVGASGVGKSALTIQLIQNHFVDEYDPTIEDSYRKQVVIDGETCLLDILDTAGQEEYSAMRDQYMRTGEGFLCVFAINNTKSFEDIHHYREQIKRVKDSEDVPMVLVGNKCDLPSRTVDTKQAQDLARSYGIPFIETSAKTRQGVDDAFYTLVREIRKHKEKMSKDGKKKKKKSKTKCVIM
Outline: as §1

[7] = system: SW620 cells; assay: Ras cellular assay, growth of cells with K-Ras G12V mutation (CellTiter-Glo); format: cell-based; settings: Homo sapiens, SW-620; cell growth, Example 9, G12V mutation; read-out: IC50 against SW620 cells
Outline: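 SW620 (K-Ras G12V) cells, e.g. 800/well in RPMI-1640 with 10% heat-inactivated FBS on standard or ultra-low attachment plates, were dosed the day after plating with e.g. a 10-point 3-fold series. Viability by CellTiter-Glo luminescence about 6 days later; IC50 from four-parameter fit.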

T1 sequence (P01116 1-188 isoform P01116-2): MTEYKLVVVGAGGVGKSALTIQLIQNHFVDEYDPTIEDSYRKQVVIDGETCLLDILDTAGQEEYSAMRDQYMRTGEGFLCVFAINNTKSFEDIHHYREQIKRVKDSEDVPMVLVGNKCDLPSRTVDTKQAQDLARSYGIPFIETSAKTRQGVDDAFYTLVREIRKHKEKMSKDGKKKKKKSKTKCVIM

SMILES	IC50 [1] [µM]	IC50 [2] [µM]	IC50 [3] [µM]	IC50 [4] [µM]	IC50 [5] [µM]	IC50 [6] [µM]	IC50 [7] [µM]
N#Cc1c(N)sc2c(F)ccc(-c3c(Cl)c4c5c(nc(OC[C@@]67CCCN6C[C@H](F)C7)nc5c3F)N(C3CCN(C(=O)[C@@H]5CCCO5)C3)CCO4)c12 (stereo partly drawn) [Compound 984, 2-amino-4-(8-chloro-10-fluoro-2-(((2R,7aS)-2-fluorotetrahydro-1H-pyrrolizin-7a(5H)-yl)methoxy)-4-(1-((S)-tetrahydrofuran-2-carbonyl)pyrrolidin-3-yl)-5,6-dihydro-4H-[1,4]oxazepino[5,6,7-de]quinazolin-9-yl)-7-fluorobenzo[b]thiophene-3-carbonitrile]	< 0.1	< 5	< 0.1	< 0.1	< 0.5	< 0.1	< 5
CN(C)CCN1CCOc2c(Cl)c(-c3ccc(F)c4sc(N)c(C#N)c34)c(F)c3nc(OC[C@@]45CCCN4C[C@H](F)C5)nc1c23 [Compound 994, 2-amino-4-(8-chloro-4-(2-(dimethylamino)ethyl)-10-fluoro-2-(((2R,7aS)-2-fluorotetrahydro-1H-pyrrolizin-7a(5H)-yl)methoxy)-5,6-dihydro-4H-[1,4]oxazepino[5,6,7-de]quinazolin-9-yl)-7-fluorobenzo[b]thiophene-3-carbonitrile]	< 0.1	< 5	< 0.1	< 0.1	< 0.5	< 0.1	< 5
N#Cc1c(N)sc2c(F)ccc(-c3c(Cl)c4c5c(nc(OC[C@@]67CCCN6C[C@H](F)C7)nc5c3F)N(C3CCCN(C(=O)C(F)F)C3)CCO4)c12 (stereo partly drawn) [Compound 998, 2-amino-4-(8-chloro-4-(1-(2,2-difluoroacetyl)piperidin-3-yl)-10-fluoro-2-(((2R,7aS)-2-fluorotetrahydro-1H-pyrrolizin-7a(5H)-yl)methoxy)-5,6-dihydro-4H-[1,4]oxazepino[5,6,7-de]quinazolin-9-yl)-7-fluorobenzo[b]thiophene-3-carbonitrile]	< 0.1	< 5	< 0.1	< 0.1	< 0.5	< 0.1	< 5
CC(C(F)F)N1CCOc2c(Cl)c(-c3ccc(F)c4sc(N)c(C#N)c34)c(F)c3nc(OC[C@@]45CCCN4C[C@H](F)C5)nc1c23 (stereo partly drawn) [Compound 1000, 2-amino-4-(8-chloro-4-(1,1-difluoropropan-2-yl)-10-fluoro-2-(((2R,7aS)-2-fluorotetrahydro-1H-pyrrolizin-7a(5H)-yl)methoxy)-5,6-dihydro-4H-[1,4]oxazepino[5,6,7-de]quinazolin-9-yl)-7-fluorobenzo[b]thiophene-3-carbonitrile]	< 0.1	< 5	< 0.1	< 0.1	< 0.5	< 0.1	< 5
N#Cc1c(N)sc2c(F)ccc(-c3c(Cl)c4c5c(nc(OC[C@@]67CCCN6C[C@H](F)C7)nc5c3F)N(CC(F)F)CC(CO)O4)c12 (stereo partly drawn) [Compound 1002, 2-amino-4-(8-chloro-4-(2,2-difluoroethyl)-10-fluoro-2-(((2R,7aS)-2-fluorotetrahydro-1H-pyrrolizin-7a(5H)-yl)methoxy)-6-(hydroxymethyl)-5,6-dihydro-4H-[1,4]oxazepino[5,6,7-de]quinazolin-9-yl)-7-fluorobenzo[b]thiophene-3-carbonitrile]	< 0.1	< 5	< 0.1	< 0.1	< 0.5	< 0.1	< 5
CN(C)CCCN1CCOc2c(Cl)c(-c3ccc(F)c4sc(N)c(C#N)c34)c(F)c3nc(OC[C@@]45CCCN4C[C@H](F)C5)nc1c23 [Compound 1020, 2-amino-4-(8-chloro-4-(3-(dimethylamino)propyl)-10-fluoro-2-(((2R,7aS)-2-fluorotetrahydro-1H-pyrrolizin-7a(5H)-yl)methoxy)-5,6-dihydro-4H-[1,4]oxazepino[5,6,7-de]quinazolin-9-yl)-7-fluorobenzo[b]thiophene-3-carbonitrile]	< 0.1	< 5	< 0.1	< 0.1	< 0.5	< 0.1	< 5
C[C@H]1CN(CC(F)F)c2nc(OC[C@@]34CCCN3C[C@H](F)C4)nc3c(F)c(-c4ccc(F)c5sc(N)c(C#N)c45)c(Cl)c(c23)O1 [Compound 1021, 2-amino-4-((6S)-8-chloro-4-(2,2-difluoroethyl)-10-fluoro-2-(((2R,7aS)-2-fluorotetrahydro-1H-pyrrolizin-7a(5H)-yl)methoxy)-6-methyl-5,6-dihydro-4H-[1,4]oxazepino[5,6,7-de]quinazolin-9-yl)-7-fluorobenzo[b]thiophene-3-carbonitrile]	< 0.1	< 5	< 0.1	< 0.1	< 0.5	< 0.1	< 5
N#Cc1c(N)sc2c(F)ccc(-c3c(Cl)c4c5c(nc(OC[C@@]67CCCN6C[C@H](F)C7)nc5c3F)N(C3CCN(C(=O)C[C@H]5CCCO5)C3)CCO4)c12 (stereo partly drawn) [Compound 1024, 2-amino-4-(8-chloro-10-fluoro-2-(((2R,7aS)-2-fluorotetrahydro-1H-pyrrolizin-7a(5H)-yl)methoxy)-4-(1-(2-((R)-tetrahydrofuran-2-yl)acetyl)pyrrolidin-3-yl)-5,6-dihydro-4H-[1,4]oxazepino[5,6,7-de]quinazolin-9-yl)-7-fluorobenzo[b]thiophene-3-carbonitrile]	< 0.1	< 5	< 0.1	< 0.1	< 0.5	< 0.1	< 5
CC(C)N1CCOc2c(Cl)c(-c3ccc(F)c4sc(N)c(C#N)c34)c(F)c3nc(OC[C@@]45CCCN4C[C@H](F)C5)nc1c23 [Compound 1025, 2-amino-4-(8-chloro-10-fluoro-2-(((2R,7aS)-2-fluorotetrahydro-1H-pyrrolizin-7a(5H)-yl)methoxy)-4-isopropyl-5,6-dihydro-4H-[1,4]oxazepino[5,6,7-de]quinazolin-9-yl)-7-fluorobenzo[b]thiophene-3-carbonitrile]	< 0.1	< 5	< 0.1	< 0.1	< 0.5	< 0.1	< 5
N#Cc1c(N)sc2c(F)ccc(-c3c(Cl)c4c5c(nc(OC[C@@]67CCCN6C[C@H](F)C7)nc5c3F)N(CC(F)F)[C@@H](CNC=O)CO4)c12 [Compound 1028, N-(((5S)-9-(2-amino-3-cyano-7-fluorobenzo[b]thiophen-4-yl)-8-chloro-4-(2,2-difluoroethyl)-10-fluoro-2-(((2R,7aS)-2-fluorotetrahydro-1H-pyrrolizin-7a(5H)-yl)methoxy)-5,6-dihydro-4H-[1,4]oxazepino[5,6,7-de]quinazolin-5-yl)methyl)formamide]	< 0.1	< 5	< 0.1	< 0.1	< 0.5	< 0.1	< 5
